Test results as given in patent EP2934149B1, “C6-AZASPIRO IMINOTHIADIAZINE DIOXIDES AS BACE INHIBITORS” (Merck Sharp & Dohme Corp., priority 2012, dated 2014).

Assays:
[1] = molecular target: T1, purified human autoBACE-2 (Homo sapiens, UniProt Q9Y5Z0); test: BACE-2 Assay (BACE-HTRF assay); format: biochemical; conditions: Ki calculated from IC50 using the Cheng-Prusoff equation; QSY7-EISEVNLDAEFC-Eu-amide substrate 200 nM final, pH 5.0, 30°C; read-out: BACE2 Ki
T1 sequence (Q9Y5Z0 63-473 limits assumed): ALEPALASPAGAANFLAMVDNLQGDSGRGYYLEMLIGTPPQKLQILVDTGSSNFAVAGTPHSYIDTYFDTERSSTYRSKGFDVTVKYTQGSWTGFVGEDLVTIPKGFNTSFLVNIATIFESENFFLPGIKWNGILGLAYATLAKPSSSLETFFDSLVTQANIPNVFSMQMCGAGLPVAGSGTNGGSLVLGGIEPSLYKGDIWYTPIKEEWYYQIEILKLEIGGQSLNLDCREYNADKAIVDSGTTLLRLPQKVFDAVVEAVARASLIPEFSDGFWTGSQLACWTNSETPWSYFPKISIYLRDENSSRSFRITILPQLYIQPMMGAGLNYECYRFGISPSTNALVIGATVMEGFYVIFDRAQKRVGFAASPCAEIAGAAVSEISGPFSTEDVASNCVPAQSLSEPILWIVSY
Experimental: Inhibitor IC50's at purified human autoBACE-2 are determined in a time-resolved endpoint proteolysis assay that measures hydrolysis of the QSY7-[…]-Eu-amide FRET peptide substrate (BACE-HTRF assay). […] Inhibitor compounds, prepared at 3x the desired final concentration in 1x BACE assay buffer (20 mM sodium acetate pH 5.0,10% glycerol, 0.1% Brij-35) supplemented with 7.5% DMSO are pre-incubated with an equal volume of autoBACE-2 enzyme diluted in 1x BACE assay buffer (final enzyme concentration 1 nM) in black 384-well NUNC plates for 30 minutes at 30°C. […] DMSO is present at 5% final concentration in the assay. Following laser excitation of sample wells at 320 nm, the fluorescence signal at 620 nm is collected for 400 ms following a 50 µs delay on a RUBYstar HTRF plate reader (BMG Labtechnologies). Raw RFU data is normalized to maximum (1.0 nM BACE/DMSO) and minimum (no enzyme/DMSO) RFU values. […] The Ki values are calculated from the IC50 using the Cheng-Prusoff equation.

[2] = molecular target: soluble human BACE1 catalytic domain (Homo sapiens, UniProt P56817); test: BACE1 HTRF FRET Assay; format: biochemical; conditions: Ki calculated from IC50 using the Cheng-Prusoff equation; QSY7-APPswe-Eu substrate 200 nM final, pH 5.0, 30° C
Chain of soluble human BACE1 catalytic domain (P56817 75-416 limits assumed): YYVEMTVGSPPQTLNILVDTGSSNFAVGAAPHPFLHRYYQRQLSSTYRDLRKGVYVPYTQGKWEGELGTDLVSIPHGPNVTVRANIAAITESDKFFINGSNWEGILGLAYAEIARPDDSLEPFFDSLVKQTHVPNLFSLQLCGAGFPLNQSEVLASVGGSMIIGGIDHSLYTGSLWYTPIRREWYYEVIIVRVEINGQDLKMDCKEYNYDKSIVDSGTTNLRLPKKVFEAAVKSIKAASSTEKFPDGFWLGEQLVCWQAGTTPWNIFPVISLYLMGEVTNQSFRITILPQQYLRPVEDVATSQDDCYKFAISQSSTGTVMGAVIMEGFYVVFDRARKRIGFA
Experimental: A homogeneous time-resolved FRET assay can be used to determine IC50 values for inhibitors of the soluble human BACE1 catalytic domain. […] This substrate contains an N-terminal QSY7 moiety that serves as a quencher of the C-terminal Europium fluorophore (620nm Em). […] Inhibition of BACE1 cleavage of the QSY7-APP^swe-Eu substrate by inhibitors is manifested as a suppression of 620 nm fluorescence. […] The reactions are incubated at 30° C for 1.5 hours. The 620nm fluorescence is then read on a Rubystar HTRF plate reader (BMG Labtechnologies) using a 50 millisecond delay followed by a 400 millisecond acquisition time window. Inhibitor IC50 values are derived from non-linear regression analysis of concentration response curves.

SMILES	Ki [1]	Ki [2]
CC(=O)N1CCC2(C1)[C@@](C)(c1cc(NC(=O)c3ccc(F)cn3)ccc1F)NC(=N)N(C)S2(=O)=O (stereo partly drawn) [Example 4]	9 nM	3.7 nM
CN1C(=N)N[C@](C)(c2cc(NC(=O)c3ccc(F)cn3)ccc2F)[C@@]2(CCN(S(=O)(=O)Cc3cccnc3)C2)S1(=O)=O [Example 93]	20 nM	28 nM
COc1ccc(C(=O)Nc2ccc(F)c([C@@]3(C)NC(=N)N(C)S(=O)(=O)[C@]34CCN(S(=O)(=O)CC3CCCO3)C4)c2)nc1 (stereo partly drawn) [Example 66]	87 nM	32 nM
COc1ccc(C(=O)Nc2ccc(F)c([C@@]3(C)NC(=N)N(C)S(=O)(=O)[C@@]34CCN(S(=O)(=O)CC3CCCO3)C4)c2)nc1 (stereo partly drawn) [Example 62]	19 nM	3 nM
COc1ccc(C(=O)Nc2ccc(F)c([C@@]3(C)NC(=N)N(C)S(=O)(=O)[C@@]34CCN(S(=O)(=O)CC(C)C)C4)c2)nc1 [Example 57]	5 nM	1 nM
COc1ccc(C(=O)Nc2ccc(F)c([C@@]3(C)NC(=N)N(C)S(=O)(=O)[C@]34CCN(S(C)(=O)=O)C4)c2)nc1 [Example 68]	205 nM	35 nM
CCS(=O)(=O)N1CC[C@]2(C1)[C@@](C)(c1cc(NC(=O)c3ccc(F)cn3)ccc1F)NC(=N)N(C)S2(=O)=O [Example 89]	41 nM	45 nM
CN1C(=N)N[C@](C)(c2cc(NC(=O)c3ccc(F)cn3)ccc2F)[C@@]2(CCN(Cc3ccccn3)C2)S1(=O)=O [Example 45]	23 nM	33 nM
COc1ccc(C(=O)Nc2ccc(F)c([C@@]3(C)NC(=N)N(C)S(=O)(=O)[C@]34CCN(S(=O)(=O)CC(C)C)C4)c2)nc1 [Example 70]	100 nM	37 nM
CN1C(=N)N[C@](C)(c2cc(NC(=O)c3ccc(F)cn3)ccc2F)[C@@]2(CCN(S(=O)(=O)C3CC3)C2)S1(=O)=O [Example 92]	29 nM	41 nM

Second part, the compound after the results:

Ki [1]	Ki [2]	SMILES
5.7 nM	2.8 nM	CC(C)CC(=O)N1CCC2(C1)[C@@](C)(c1cc(NC(=O)c3ccc(F)cn3)ccc1F)NC(=N)N(C)S2(=O)=O (stereo partly drawn) [Example 7]
61 nM	84 nM	CN1C(=N)N[C@](C)(c2cc(NC(=O)c3ccc(F)cn3)ccc2F)[C@@]2(CCN(Cc3ccncc3)C2)S1(=O)=O [Example 53]
4.5 nM	3.4 nM	CN1C(=N)N[C@](C)(c2cc(NC(=O)c3ccc(F)cn3)ccc2F)C2(CCN(Cc3ccccc3)C2)S1(=O)=O (stereo partly drawn) [Example 1]
25 nM	32 nM	CN1C(=N)N[C@](C)(c2cc(NC(=O)c3ccc(F)cn3)ccc2F)[C@@]2(CCN(Cc3cscn3)C2)S1(=O)=O [Example 42]
79 nM	26 nM	COc1ccc(C(=O)Nc2ccc(F)c([C@@]3(C)NC(=N)N(C)S(=O)(=O)[C@]34CCN(Cc3ccccn3)C4)c2)nc1 [Example 22]
24 nM	12 nM	COc1ccc(C(=O)Nc2ccc(F)c([C@@]3(C)NC(=N)N(C)S(=O)(=O)[C@]34CCN(S(=O)(=O)c3ccccc3)C4)c2)nc1 [Example 63]
128 nM	34 nM	COc1ccc(C(=O)Nc2ccc(F)c([C@@]3(C)NC(=N)N(C)S(=O)(=O)[C@]34CCN(CC3CC3)C4)c2)nc1 [Example 24]
99 nM	28 nM	COc1ccc(C(=O)Nc2ccc(F)c([C@@]3(C)NC(=N)N(C)S(=O)(=O)[C@]34CCN(S(=O)(=O)CC(F)(F)F)C4)c2)nc1 [Example 72]
19 nM	37 nM	CN1C(=N)N[C@](C)(c2cc(NC(=O)c3ccc(F)cn3)ccc2F)[C@@]2(CCN(S(=O)(=O)c3cn(C)cn3)C2)S1(=O)=O [Example 94]
16 nM	3 nM	COc1ccc(C(=O)Nc2ccc(F)c([C@@]3(C)NC(=N)N(C)S(=O)(=O)[C@@]34CCN(S(=O)(=O)c3ccccc3)C4)c2)nc1 [Example 59]
68 nM	29 nM	COc1ccc(C(=O)Nc2ccc(F)c([C@@]3(C)NC(=N)N(C)S(=O)(=O)[C@]34CCN(S(=O)(=O)c3cn(C)cn3)C4)c2)nc1 [Example 65]
51 nM	58 nM	CN1C(=N)N[C@](C)(c2cc(NC(=O)c3ccc(F)cn3)ccc2F)[C@@]2(CCN(CC3CC3)C2)S1(=O)=O [Example 47]
5.2 nM	2.7 nM	CN1C(=N)N[C@](C)(c2cc(NC(=O)c3ccc(F)cn3)ccc2F)C2(CCN(C(=O)CC3CC3)C2)S1(=O)=O (stereo partly drawn) [Example 6]
77 nM	70 nM	CN1C(=N)N[C@](C)(c2cc(NC(=O)c3ccc(F)cn3)ccc2F)[C@@]2(CCN(Cc3cncnc3)C2)S1(=O)=O [Example 50]
